Test results taken from the METLIN SMRT retention time set (Domingo-Almenara et al. 2019).

test: gradient 5% acetonitrile 3 min, to 50% in 2 min, to 85% in 15 min, held 3 min, 100 µL/min; details: column: Zorbax Extend-C18 2.1 x 50 mm; eluents: water / acetonitrile, 0.1% formic acid
Procedure, shortened: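 Data were gathered over 3 months by HPLC coupled to a quadrupole time-of-flight mass spectrometer, operated in positive and negative ionization mode. Mixtures of ~100 pure standards ran on a Zorbax Extend-C18 column (2.1 × 50 mm, 1.8 μm) at 100 μL/min, with water and acetonitrile each containing 0.1% formic acid and dead and dwell volumes of 40 μL and 900 μL. Retention time was read from adduct peaks picked by computer and checked manually.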

Row | SMILES | RP-LC retention time [s]
1 | O=C(NCC1CCN(C(=O)COc2ccccc2)CC1)Nc1cccc(C(F)(F)F)c1 | 840
2 | CCCC(=O)Nc1ccc(-c2cn3ccc(C)nc3n2)cc1 | 587
3 | Fc1ccc(-c2noc(Cc3nnc(-c4cccc(Br)c4)o3)n2)cc1 | 1120
4 | COc1ccc(-c2nnc(N3CCC(C(=O)NCc4ccco4)CC3)o2)cc1 | 738
5 | COC(=O)c1cnc(N2CCN(Cc3ccccc3)CC2)c2ccccc12 | 682
6 | CN(C)c1nc(C(=O)N2CCN(c3ccc(F)cc3)CC2)nc2c1cnn2C | 739
7 | CCC(C)NC(=O)C(=O)NCc1n[nH]c(=O)c2ccccc12 (configuration not stated) | 649
8 | COCCCNC(=O)CCCn1c(=O)c2cccn2c2ccccc21 | 682
9 | O=C(CN1CC=C(c2cnn(-c3ccccc3)c2)CC1)NCC1CCCO1 (configuration not stated) | 612
10 | CCn1cnc(S(=O)(=O)N2CCCC(C(=O)N3CCN(c4ccccc4)CC3)C2)c1 (configuration not stated) | 747
11 | Cc1nc(Cn2cccc2C(=O)Nc2ccc(Br)c(C)c2)no1 | 995
12 | CCn1c(=O)sc2cc(S(=O)(=O)N3CCC(C(=O)NCc4cccc(OC)c4)CC3)ccc21 | 1000
13 | Cc1ccc(N2CN(CCC(C)C)S(=O)(=O)c3cccnc32)cc1 | 1150
14 | Cc1cccc2c(=O)c3c([nH]c12)CCN(CC(=O)NCc1ccccc1)C3 | 601
15 | Cc1ccccc1NC(=O)C1C(=O)NC2(C)CC1c1ccccc1O2 (configuration not stated) | 869
16 | O=C(Cc1nnc2cc(-c3nc(C4CC4)no3)ccn12)N1CCc2ccccc2C1 | 780
17 | O=C(NCC(c1ccsc1)N1CCCCCC1)C(=O)Nc1ccc2c(c1)OCCO2 (configuration not stated) | 570
18 | Cc1cc(C)nc(N2CCN(c3cc(C)nc4c(-c5ccc(F)cc5)cnn34)CC2)n1 | 1190
19 | Cc1cc(C(=O)N2CCCCCC2)nc2cc(-c3cccs3)nn12 | 977
20 | O=C(CSc1nnc2ccc3ccccc3n12)c1ccc(Cl)cc1 | 875
21 | CCSC1=NCCN1C(=O)C(C)(C)Oc1ccc(Cl)cc1 | 770
22 | O=C(c1ccsc1)N1CCc2cc(-c3csc(C4CC4)n3)ccc21 | 1120
23 | O=C(NCc1cccc(C(F)(F)F)c1)C1CCN(c2ccc(SCc3ccccc3)nn2)CC1 | 871

Row | SMILES | RP-LC retention time [s]
24 | CCn1cc(C(=O)Nc2ccccc2C)c2cccnc21 | 791
25 | CC(=O)N1c2ccc(S(=O)(=O)N3CCCCC3)cc2CC1C(=O)NCCCc1ccccc1 (configuration not stated) | 917
26 | CC(C)OCCCNC(=O)c1ccc2cnn(Cc3ccc(F)cc3)c2c1 | 656
27 | O=C(c1cccc(C(F)(F)F)c1)N1CCN(c2nc(CN3CCOCC3)cs2)CC1 | 644
28 | CCC(C)NC(=O)C1(c2ccc(NS(C)(=O)=O)cc2)CCCCC1 (configuration not stated) | 736
29 | CC1CCN(c2cc(-n3cnc(C(=O)N4CCN(C5CCCCC5)CC4)c3)ncn2)CC1 | 597
30 | CC(C)CCNC(=O)C1CCCN(c2nc3ccsc3c(=O)n2-c2ccc(F)cc2)C1 (configuration not stated) | 884
31 | CCOC(=O)c1c(S(=O)(=O)N2CCC(C(=O)Nc3cc(C)ccc3OC)CC2)c(C)n(C)c1C | 936
32 | O=C(Nc1ccccc1F)C(=O)c1cn(CC(=O)N2CCCC2)c2ccccc12 | 974
33 | Cc1ccc(CNS(=O)(=O)c2cc(-c3nc(C(C)(C)C)cs3)cs2)o1 | 1190
34 | Cc1c(Cl)ccc2c(=O)c3c([nH]c12)CCN(CC(=O)Nc1cccc(Cl)c1)C3 | 704
35 | O=c1ccc(-c2ccc3c(c2)OCO3)nn1Cc1nc(-c2ccc(F)c(Br)c2)no1 | 1100
36 | COc1ccc(-c2c(C)noc2NC(C)=O)cc1S(=O)(=O)Nc1ccc(F)cc1F | 743
37 | O=C(Oc1ccccc1)N1CCC(CNS(=O)(=O)c2ccc(F)c(Cl)c2)CC1 | 951
38 | CC(C)NC(=O)c1ccccc1OCC1CCCNC1 (configuration not stated) | 583
39 | Cc1nc(N2CCN(c3ccccn3)CC2)nc2c1C(=O)CC(c1cccs1)C2 (configuration not stated) | 732
40 | CCOc1cccc(-c2noc(Cn3nc(-c4ccc(OC)cc4)ccc3=O)n2)c1 | 1030
41 | CCc1nn2c(CNS(=O)(=O)Cc3ccccc3Cl)c(-c3ccccc3)nc2s1 | 1010
42 | CCc1nc2onc(C)c2c(=O)n1CC(=O)NCc1ccc(F)cc1 | 783
43 | Cc1cc(NC(=O)C(=O)NCCN2CCN(c3ccccc3F)CC2)no1 | 580
44 | COc1ccc(CN(C(=O)c2oc3ccccc3c2C)C2CCS(=O)(=O)C2)cc1OC (configuration not stated) | 826
45 | CCCN(CC1CCOC1)C(=O)c1cccc(Cl)c1 (configuration not stated) | 814
46 | COc1cccc(C(C#N)N2N=C(C)CC2c2ccccc2)c1O (configuration not stated) | 965

Row | SMILES | RP-LC retention time [s]
47 | CSc1cccc(NC(=O)C2CCCN(c3ncnc4c3nc3n4CCCCC3)C2)c1 (configuration not stated) | 866
48 | CCOc1ccccc1NC(=O)NCc1nc(-c2ccccc2)oc1C | 963
49 | Nc1nc(-c2ccccc2Cl)nn1C(=O)C1CC1 | 827
50 | CC(C)(C)c1cccc(NC(=O)C2CCc3nc(N4CCOCC4)ncc3C2)c1 (configuration not stated) | 945
51 | COc1cc(OC)c(NC(=O)c2c(OC)cc(=O)n3c2CCCC3)cc1Cl | 884
52 | CC(=O)N1CCN(c2nc3c(s2)CC(C(=O)NCc2cc(C)ccc2C)CC3)CC1 (configuration not stated) | 576
53 | CCn1cc(-c2nc(C(=O)Nc3cc(F)ccc3Cl)cs2)c2cccnc21 | 1330
54 | COCC(=O)NC1CCN(c2ccc(C)c(C)c2)C1=O (configuration not stated) | 705
55 | COc1ccc(C(=O)Nc2ccc3c(c2)N(C(=O)C2CCCO2)CC3)c(OC)c1OC (configuration not stated) | 615
56 | COc1ccccc1C1(CNS(=O)(=O)c2ccc(NC(=O)C(C)C)cc2)CCOCC1 | 806
57 | Cc1ccccc1Cn1nc2ccc(S(=O)(=O)N3CCOCC3)cn2c1=O | 818
58 | O=C(NCCN1CCN(S(=O)(=O)c2ccccc2)CC1)c1c(F)cccc1Cl | 574
59 | Cc1ccc(C(=O)N2CCC(C)CC2)cc1[N+](=O)[O-] | 830
60 | COc1cccc(S(=O)(=O)Nc2ccc3c(c2)CCC(=O)N3CC(C)C)c1 | 868
61 | O=C(C1=CN(c2cccc(C(F)(F)F)c2)c2cc(F)ccc2S1(=O)=O)N1CCOCC1 | 858
62 | CCc1ccc(CNC(=O)c2csc(C(=O)NC)n2)cc1 | 808
63 | O=C(CCC[C@@H]1[C@H]2CCCN3CCC[C@@H](CN1C(=O)c1ccccc1)[C@@H]23)Nc1ccc2c(c1)OCCO2 | 647
64 | Cc1cc(C)c2nc(Nc3nccc(C)n3)nc(C)c2c1 | 640
65 | CCC(CC)C(=O)N1CCC2(CC1)C(=O)N(C)c1ccccc12 | 850
66 | CN(C)C(=O)c1ccc2c(c1)N(CC(=O)N1CCN(c3ccccn3)CC1)C(=O)CO2 | 784
67 | COc1ccc(N2C(=O)CC(c3ccc(OC)c(OC)c3)CC2=O)cc1 | 780
